The text below walks through data of ChEMBL document CHEMBL4680374, “Carbamate and N-Pyrimidine Mitigate Amide Hydrolysis: Structure-Based Drug Design of Tetrahydroquinoline IDO1 Inhibitors” (ACS Med Chem Lett, 2021).

Each structure is given as a SMILES string. Values after ≈ are worked out from the molar mass of the structure shown. Active and inactive are the calls of the source. The calls are words filed in the database; no cut-off is given here.

A short description of data set [1]: Solubility of compound in PBS buffer at pH 2 at 200 uM incubated for 24 hrs in shaker by UPLC-DAD analysis. The class given is physicochemical.
Data set [2] is described as follows: Solubility of compound in PBS buffer at pH 7 at 200 uM incubated for 24 hrs in shaker by UPLC-DAD analysis. It counts as physicochemical.
A short description of data set [3]: Lipophilicity, log D of compound in PBS buffer at pH 7 at 200 uM incubated for 24 hrs in shaker by UPLC/DAD analysis. It counts as physicochemical.
Data set [4] in a line: Metabolic stability in human hepatocytes at 30 uM measured upto 90 mins by LC-MS analysis. The class given is ADME, cell-based, Hepatocyte.
The nature of data set [5]: Metabolic stability in rat hepatocytes at 30 uM measured upto 90 mins by LC-MS analysis. It counts as ADME, cell-based, Hepatocyte.
The target of data set [6] is Voltage-gated inwardly rectifying potassium channel KCNH2 (Homo sapiens, UniProt Q12809). In words: Displacement of [35S]-MK499 binding to human ERG expressed in HEK293 cells incubated for 2 hrs by liquid scintillation counting method. It counts as cell-based. On the technique in general: In a radioligand displacement assay an active substance lowers the binding of a labelled ligand.

The target of data set [7] is Tryptophan 2,3-dioxygenase (Homo sapiens) (UniProt P48775). Briefly: Inhibition of TDO in human SW48 cells assessed as inhibition of N-formylkynurenine production. The class given is cell-based.
A short description of data set [8]: Plasma clearance in rat at 2 mg/kg, po or 1 mg/kg, iv. It counts as ADME, organism-based.
Data set [9] can be described thus: Half life in rat at 2 mg/kg, po or 1 mg/kg, iv. It counts as ADME, organism-based. The settings on record: in vivo.

The term solubility denotes how much of the substance goes into solution per volume. Lower therefore signals a poorly soluble substance. By logD is commonly meant lipophilicity at a set pH, counting ionised and neutral species. A higher logD goes with a more lipophilic compound. The IC50 is the concentration at which inhibition is half-maximal. The half-life is how long it takes for the measured level to halve. Lower therefore signals fast loss.

Sequence of Voltage-gated inwardly rectifying potassium channel KCNH2 (Q12809 whole entry): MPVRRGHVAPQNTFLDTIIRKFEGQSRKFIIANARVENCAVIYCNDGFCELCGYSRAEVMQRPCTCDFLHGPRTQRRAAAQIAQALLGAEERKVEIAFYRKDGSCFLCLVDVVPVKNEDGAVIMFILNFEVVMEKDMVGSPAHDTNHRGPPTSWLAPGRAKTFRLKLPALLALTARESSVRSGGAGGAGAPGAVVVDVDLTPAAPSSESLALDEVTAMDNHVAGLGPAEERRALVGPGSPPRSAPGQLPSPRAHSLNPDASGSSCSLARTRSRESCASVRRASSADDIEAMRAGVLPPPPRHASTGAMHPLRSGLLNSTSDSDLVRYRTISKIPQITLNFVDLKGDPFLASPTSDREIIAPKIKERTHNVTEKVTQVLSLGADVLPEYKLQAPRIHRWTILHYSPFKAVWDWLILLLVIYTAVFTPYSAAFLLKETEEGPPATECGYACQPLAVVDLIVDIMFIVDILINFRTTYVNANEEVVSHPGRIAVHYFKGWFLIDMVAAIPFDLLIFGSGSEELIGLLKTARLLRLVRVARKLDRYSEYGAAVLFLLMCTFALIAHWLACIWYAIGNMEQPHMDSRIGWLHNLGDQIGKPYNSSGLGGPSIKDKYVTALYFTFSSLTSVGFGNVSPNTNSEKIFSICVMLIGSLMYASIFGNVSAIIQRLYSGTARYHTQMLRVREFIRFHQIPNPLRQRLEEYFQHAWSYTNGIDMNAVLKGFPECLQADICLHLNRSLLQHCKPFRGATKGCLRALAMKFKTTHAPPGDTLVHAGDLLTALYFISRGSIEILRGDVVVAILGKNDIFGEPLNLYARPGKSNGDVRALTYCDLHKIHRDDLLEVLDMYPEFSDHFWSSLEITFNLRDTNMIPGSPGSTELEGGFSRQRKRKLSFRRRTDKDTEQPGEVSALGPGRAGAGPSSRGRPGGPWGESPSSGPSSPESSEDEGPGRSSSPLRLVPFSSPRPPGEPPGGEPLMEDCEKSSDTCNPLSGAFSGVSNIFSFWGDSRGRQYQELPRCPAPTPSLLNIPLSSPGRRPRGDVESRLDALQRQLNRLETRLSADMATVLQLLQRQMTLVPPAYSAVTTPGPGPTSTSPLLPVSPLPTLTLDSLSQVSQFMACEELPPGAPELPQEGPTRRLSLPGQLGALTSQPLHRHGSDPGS
Sequence of Tryptophan 2,3-dioxygenase (Homo sapiens) (P48775 whole entry, looked up): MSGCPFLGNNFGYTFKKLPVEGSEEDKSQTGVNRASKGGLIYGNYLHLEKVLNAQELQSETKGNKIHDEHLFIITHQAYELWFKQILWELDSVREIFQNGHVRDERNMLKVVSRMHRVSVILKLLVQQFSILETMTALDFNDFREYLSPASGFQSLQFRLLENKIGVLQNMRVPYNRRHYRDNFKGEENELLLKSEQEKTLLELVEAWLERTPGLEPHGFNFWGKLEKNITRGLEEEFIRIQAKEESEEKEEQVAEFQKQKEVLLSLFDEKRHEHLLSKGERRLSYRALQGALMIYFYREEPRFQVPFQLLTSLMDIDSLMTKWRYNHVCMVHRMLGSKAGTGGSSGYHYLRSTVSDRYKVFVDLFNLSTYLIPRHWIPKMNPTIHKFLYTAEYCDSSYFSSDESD

Consider `C[C@@H](NC(=O)c1ccc(F)cc1)c1ccc2c(n1)CCCN2c1ccncn1`, for which the solubility at 24 h, 200 µM worked out at 157 µM (≈ 59.3 µg/mL) in data set [1] and 164 µM (≈ 61.9 µg/mL) in [2]. This compound registered a log distribution coefficient (logD) at 24 h, 200 µM in [3] of 1.9.

With `C[C@@H](NC(=O)c1ccc(F)cc1)c1ccc2c(n1)CCCN2C(=O)C1(C(F)(F)F)CC1`, the solubility at 24 h, 200 µM in data set [1] came to 187 µM (≈ 81.4 µg/mL); in data set [2] it was 162 µM (≈ 70.5 µg/mL). The Stabilty result in [4] and in [5] was “Stable” each time. In data set [3], this compound gave a logD at 24 h, 200 µM of 2.9.

With `C[C@H](NC(=O)c1ccc(Cl)cc1)c1ccc2c(c1)CCCN2C(=O)c1cccc(Cl)c1`, in [6], the IC50 worked out at 1 µM. Besides, the results for the solubility at 24 h, 200 µM in data set [1] and in data set [2] were under 1 µM and 3 µM (≈ 1.36 µg/mL), respectively. Besides, the logD at 24 h, 200 µM in data set [3] was found to be 3.7.

Consider `C[C@@H](NC(=O)c1ccc(F)cc1)c1ccc2c(n1)CCCN2c1ccccn1`, for which the solubility at 24 h, 200 µM in data set [1] amounted to 197 µM (≈ 74.2 µg/mL); in [2], 151 µM (≈ 56.8 µg/mL). This compound showed a logD at 24 h, 200 µM in [3] of 2.7.

On to `CC(C)CC(=O)N1CCCc2cc(CNC(=O)c3ccc(Cl)cc3)cnc21`, for which the solubility at 24 h, 200 µM came to 185 µM (≈ 71.4 µg/mL) in [1] and 97 µM (≈ 37.4 µg/mL) in [2]. This compound also had a logD at 24 h, 200 µM in data set [3] of 3.

On to `C[C@@H](NC(=O)c1ccc(F)cc1)c1ccc2c(n1)CCCN2c1cnccn1`, for which the values for the solubility at 24 h, 200 µM in [1] and in data set [2] were 143 µM (≈ 54 µg/mL) and 4 µM (≈ 1.51 µg/mL), respectively. Also, the logD at 24 h, 200 µM in data set [3] was found to be 2.1.

Regarding `Cc1cc(N2CCCc3nc([C@@H](C)NC(=O)c4ccc(F)cc4)ccc32)ccn1`, the IC50 in [6] turned out to be 0.73 µM. For the same compound, the values for the solubility at 24 h, 200 µM in data set [1] and in [2] were 177 µM (≈ 69.1 µg/mL) and 165 µM (≈ 64.4 µg/mL), respectively. The Stabilty result in data set [4] and in data set [5] was “Stable” each time. Also, in [3], the log distribution coefficient (logD) at 24 h, 200 µM was 2.

Take `C[C@@H](NC(=O)c1ccc(F)cc1)c1ccc2c(n1)CCCN2c1cccnc1`: the solubility at 24 h, 200 µM is 177 µM (≈ 66.6 µg/mL) in [1] and 147 µM (≈ 55.3 µg/mL) in data set [2]. Also, the logD at 24 h, 200 µM in [3] worked out at 2.3.

In [6], `CC(C)CC(=O)N1CCCc2cc(CNC(=O)c3ccsc3)ccc21` displayed an IC50 of 24 µM. Further, the solubility at 24 h, 200 µM in data set [1] was 140 µM (≈ 49.9 µg/mL); in data set [2], 137 µM (≈ 48.8 µg/mL). The Stabilty result in [4] and in data set [5] was “Unstable” in each case. The compound also had a logD at 24 h, 200 µM in data set [3] of 2.8. In addition, the inhibition entry in [7] is “inactive”. For the same compound, the clearance in [8] amounted to 93 mL/min/kg. Also, the half-life in data set [9] is 12 min.

Turning to `C[C@@H](NC(=O)c1ccc(F)cc1)c1ccc2c(n1)CCCN2C(=O)OCC(F)(F)F`, the solubility at 24 h, 200 µM amounted to 200 µM (≈ 85.1 µg/mL) in data set [1] and 132 µM (≈ 56.2 µg/mL) in data set [2]. For the same compound, in [3], the logD at 24 h, 200 µM was 3.

For `C[C@@H](NC(=O)c1ccc(Cl)cc1)c1ccc2c(c1)C(F)(F)CCN2C(=O)c1cccc(Cl)c1`, the solubility at 24 h, 200 µM in data set [1] and in [2] was under 4 µM each time. Besides, in data set [3], the log distribution coefficient (logD) at 24 h, 200 µM worked out at 3.9.

On to `CCCNC(=O)C1(c2ccc(NC(=O)c3cccc(Cl)c3)cc2)CCC1`, for which the logD at 24 h, 200 µM in [3] turned out to be 3.2.

Consider `C[C@@H](NC(=O)c1ccc(F)cc1)c1ccc2c(n1)CCCN2c1ncccn1`, for which the IC50 in [6] is 20 µM. The solubility at 24 h, 200 µM in data set [1] came out at 139 µM (≈ 52.5 µg/mL); in data set [2] it was 5 µM (≈ 1.89 µg/mL). Moreover, the pH-dependent lipophilicity (logD) at 24 h, 200 µM in data set [3] turned out to be 2.4.

Compound `CC(C)CC(=O)N1CCCc2cc(CNC(=O)c3ccc(Cl)cc3)ccc21` registered an IC50 in data set [6] of 22 µM. Besides, the solubility at 24 h, 200 µM in data set [1] and in data set [2] was 13 µM (≈ 5 µg/mL) each time. The compound also registered a logD at 24 h, 200 µM in data set [3] of 3.3.

In data set [6], `C[C@@H](NC(=O)c1ccc(Cl)cc1)c1cc2c(cn1)N(C(=O)c1cccc(Cl)c1)CCC2` gave an IC50 of 16 µM. In addition, the values for the solubility at 24 h, 200 µM in data set [1] and in data set [2] were 152 µM (≈ 69.1 µg/mL) and 27 µM (≈ 12.3 µg/mL), respectively. For the same compound, the logD at 24 h, 200 µM in data set [3] turned out to be 3.3.
